In paper PMC10628124, “Elevator-like movements of prestin mediate outer hair cell electromotility” (Nature Communications, 2023):

Experiments:
Assay type in all cases: cell-based
[1] = molecular target: T1, rPres (Rattus norvegicus, UniProt Q9EPH0, R150C); assay: voltage-clamp fluorometry, Xenopus oocytes; details: 10 mM extracellular salicylate; labelled at C150 with MTS-TAMRA; signal suppressed, V1/2 depolarized
T1 construct: gene Slc26a5; full length; C-terminal 6xHis tag in Xenopus oocytes (pGEMHE); homodimer
T1 sequence (Q9EPH0 1-744 R150C): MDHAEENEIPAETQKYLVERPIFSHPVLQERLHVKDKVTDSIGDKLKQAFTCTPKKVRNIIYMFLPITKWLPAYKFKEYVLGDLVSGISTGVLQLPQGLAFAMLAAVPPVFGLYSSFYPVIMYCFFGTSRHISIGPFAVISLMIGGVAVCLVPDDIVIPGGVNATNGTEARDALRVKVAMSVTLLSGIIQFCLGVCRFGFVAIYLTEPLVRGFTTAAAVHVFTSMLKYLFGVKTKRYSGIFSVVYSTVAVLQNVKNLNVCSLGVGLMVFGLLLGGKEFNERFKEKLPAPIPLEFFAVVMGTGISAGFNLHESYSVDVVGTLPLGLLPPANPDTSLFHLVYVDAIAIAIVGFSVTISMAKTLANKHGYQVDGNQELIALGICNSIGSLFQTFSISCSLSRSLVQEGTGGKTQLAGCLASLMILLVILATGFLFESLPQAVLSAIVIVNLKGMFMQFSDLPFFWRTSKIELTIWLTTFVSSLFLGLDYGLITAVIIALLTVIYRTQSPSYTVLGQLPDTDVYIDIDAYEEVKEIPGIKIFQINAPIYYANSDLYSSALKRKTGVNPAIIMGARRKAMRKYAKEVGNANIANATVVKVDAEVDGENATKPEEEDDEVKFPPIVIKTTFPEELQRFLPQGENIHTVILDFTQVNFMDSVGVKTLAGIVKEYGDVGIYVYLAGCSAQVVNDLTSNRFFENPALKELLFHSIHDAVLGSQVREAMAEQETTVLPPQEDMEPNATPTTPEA

[2] = molecular target: T2, zPres (Danio rerio, UniProt Q7T2C4, R505K); assay: whole-cell patch clamp, non-linear capacitance, CHO cells; details: 10 mM extracellular salicylate; 160 mM intracellular Cl-; pH 7.4; zPres-GFP; inhibition
T2 construct: gene slc26a5; full length; C-terminal GFP fusion in CHO cells (pEGFP-N1); in Xenopus oocytes (pGEMHE) with functionally silent R505K; homodimer
T2 sequence (Q7T2C4 1-739 R505K): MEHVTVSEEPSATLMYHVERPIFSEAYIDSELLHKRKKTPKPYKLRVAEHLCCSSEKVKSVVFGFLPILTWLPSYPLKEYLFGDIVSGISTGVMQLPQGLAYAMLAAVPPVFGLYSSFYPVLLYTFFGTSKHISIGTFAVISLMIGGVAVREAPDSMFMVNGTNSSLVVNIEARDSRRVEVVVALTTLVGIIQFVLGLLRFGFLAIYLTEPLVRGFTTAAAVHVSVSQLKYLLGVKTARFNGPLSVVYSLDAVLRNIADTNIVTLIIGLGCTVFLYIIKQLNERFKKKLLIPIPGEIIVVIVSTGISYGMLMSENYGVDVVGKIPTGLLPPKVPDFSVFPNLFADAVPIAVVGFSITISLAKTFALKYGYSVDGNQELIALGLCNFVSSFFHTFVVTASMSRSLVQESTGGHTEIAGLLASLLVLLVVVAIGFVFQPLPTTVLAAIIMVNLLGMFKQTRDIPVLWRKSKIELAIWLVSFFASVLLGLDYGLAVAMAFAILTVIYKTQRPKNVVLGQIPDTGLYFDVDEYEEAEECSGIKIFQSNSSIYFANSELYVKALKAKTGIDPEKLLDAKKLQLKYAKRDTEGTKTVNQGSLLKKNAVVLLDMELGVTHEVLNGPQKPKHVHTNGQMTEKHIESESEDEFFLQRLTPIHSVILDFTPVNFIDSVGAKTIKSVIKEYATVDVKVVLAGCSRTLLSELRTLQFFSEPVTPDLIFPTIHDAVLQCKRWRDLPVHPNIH

[3] = molecular target: T3, zPres (Danio rerio, UniProt Q7T2C4, R505K, form not given); assay: whole-cell patch clamp, oxalate-chloride counter-transport current, CHO cells; details: 106 mM intracellular oxalate; extracellular chloride; current at 0 mV; GFP fusion
T3 construct: gene slc26a5; full length; C-terminal GFP fusion in CHO cells (pEGFP-N1); in Xenopus oocytes (pGEMHE) with functionally silent R505K; homodimer
T3 sequence (Q7T2C4 1-739 R505K): T2 sequence (Q7T2C4 1-739 R505K)

SMILES | voltage-clamp fluorometry, Xenopus oocytes [1] | whole-cell patch clamp, non-linear capacitance, CHO cells [2] | whole-cell patch clamp, oxalate-chloride counter-transport current, CHO cells [3]
O=C(O)c1ccccc1O [salicylate] | salicylate, suppressed the voltage-dependent fluorescence signals of rPres-R150C-TAMRA | NLC recorded from cells expressing zPres was readily inhibited by salicylate | –
O=C(O)C(=O)O [oxalate] | – | – | monitored as the electrogenic oxalate-chloride counter-transport current by whole-cell patch-clamping
